Test results reported in ChEMBL document CHEMBL1255335 (Antimicrob Agents Chemother, 2008).
Converted amounts (≈) assume the structure as drawn.

Assays:
[1] = tested on: Escherichia coli; experiment: Antibacterial activity against Escherichia coli DH5alpha expressing Klebsiella pneumoniae beta-lactamase SHV-1 by agar dilution method; assay type: functional
[2] = tested on: Klebsiella pneumoniae; experiment: Antibacterial activity against Klebsiella pneumoniae INSRA1229 harboring SHV-72 Ile8Phe, Ala146Val, and Lys234Arg mutations by agar dilution method
[3] = tested on: Escherichia coli; experiment: Antibacterial activity against Escherichia coli DH5alpha with deltaampC by agar dilution method; assay type: functional
[4] = tested on: Escherichia coli; experiment: Antibacterial activity against Escherichia coli DH5alpha expressing Klebsiella pneumoniae beta-lactamase SHV-72 by agar dilution method; assay type: functional
[5] = tested on: Escherichia coli; experiment: Antibacterial activity against Escherichia coli DH5alpha expressing Klebsiella pneumoniae beta-lactamase SHV-72 by agar dilution method in presence of 2 ug/ml clavulanic acid; assay type: functional
[6] = tested on: Escherichia coli; experiment: Antibacterial activity against Escherichia coli DH5alpha expressing Klebsiella pneumoniae beta-lactamase SHV-1 by agar dilution method in presence of 2 ug/ml clavulanic acid; assay type: functional
[7] = tested on: Escherichia coli; experiment: Antibacterial activity against Escherichia coli DH5alpha with deltaampC by agar dilution method in presence of 2 ug/ml clavulanic acid; assay type: functional
[8] = tested on: Klebsiella pneumoniae; experiment: Antibacterial activity against Klebsiella pneumoniae INSRA1229 harboring SHV-72 Ile8Phe, Ala146Val, and Lys234Arg mutations by agar dilution method in presence of 2 ug/ml clavulanic acid; assay type: functional
[9] = Escherichia coli, DH5alpha, read-out: MIC

SMILES: CO/N=C(\C(=O)N[C@@H]1C(=O)N2C(C(=O)[O-])=C(C[N+]3(C)CCCC3)CS[C@H]12)c1csc(N)n1
- MIC [1]: 0.03 µg/mL (≈ 0.0624 µM)
- MIC [2]: 0.03 µg/mL (≈ 0.0624 µM)
- MIC [3]: 0.03 µg/mL (≈ 0.0624 µM)
- MIC [4, 9]: 0.03 µg/mL (≈ 0.0624 µM)

SMILES: CC1(C)S[C@@H]2[C@H](/N=C/N3CCCCCC3)C(=O)N2[C@H]1C(=O)O [AMDINOCILLIN]
- MIC [1]: 0.5 µg/mL (≈ 1.54 µM)
- MIC [2]: 0.25 µg/mL (≈ 0.768 µM)
- MIC [3]: 0.125 µg/mL (≈ 0.384 µM)
- MIC [4, 9]: 0.25 µg/mL (≈ 0.768 µM)

SMILES: CC1(C)S[C@@H]2[C@H](NC(=O)[C@H](N)c3ccc(O)cc3)C(=O)N2[C@H]1C(=O)O [AMOXICILLIN]
- MIC [1]: 2050 µg/mL (≈ 5600 µM)
- MIC [5]: 64 µM
- MIC [2]: 2050 µg/mL (≈ 5600 µM)
- MIC [6]: 8 µM
- MIC [7]: 8 µM
- MIC [3]: 8 µg/mL (≈ 21.9 µM)
- MIC [8]: 64 µM
- MIC [4, 9]: 512 µg/mL (≈ 1400 µM)

SMILES: CCN1CCN(C(=O)N[C@@H](C(=O)N[C@@H]2C(=O)N3C(C(=O)O)=C(CSc4nnnn4C)CS[C@H]23)c2ccc(O)cc2)C(=O)C1=O [CEFOPERAZONE]
- MIC [1]: 4 µg/mL (≈ 6.2 µM)
- MIC [2]: 2 µg/mL (≈ 3.1 µM)
- MIC [3]: ≤ 0.25 µg/mL
- MIC [4, 9]: ≤ 0.25 µg/mL

SMILES: CO/N=C(\C(=O)N[C@@H]1C(=O)N2C(C(=O)O)=C(COC(C)=O)CS[C@H]12)c1csc(N)n1 [CEFOTAXIME]
- MIC [1]: 0.06 µg/mL (≈ 0.132 µM)
- MIC [5]: 0.06 µg/mL
- MIC [2]: 0.125 µg/mL (≈ 0.274 µM)
- MIC [6]: 0.06 µg/mL
- MIC [7]: 0.06 µg/mL
- MIC [3]: 0.06 µg/mL (≈ 0.132 µM)
- MIC [8]: 0.06 µg/mL
- MIC [4, 9]: 0.06 µg/mL (≈ 0.132 µM)

SMILES: CO[C@@]1(NC(=O)Cc2cccs2)C(=O)N2C(C(=O)O)=C(COC(N)=O)CS[C@@H]21 [CEFOXITIN]
- MIC [1]: 8 µg/mL (≈ 18.7 µM)
- MIC [2]: 4 µg/mL (≈ 9.36 µM)
- MIC [3]: 4 µg/mL (≈ 9.36 µM)
- MIC [4, 9]: 8 µg/mL (≈ 18.7 µM)

SMILES: CC(C)(O/N=C(\C(=O)N[C@@H]1C(=O)N2C(C(=O)[O-])=C(C[n+]3ccccc3)CS[C@H]12)c1csc(N)n1)C(=O)O [CEFTAZIDIME]
- MIC [1]: 0.5 µg/mL (≈ 0.915 µM)
- MIC [5]: 0.25 µg/mL
- MIC [6]: 0.25 µg/mL
- MIC [7]: 0.125 µg/mL
- MIC [3]: 0.25 µg/mL (≈ 0.457 µM)
- MIC [4, 9]: 0.25 µg/mL (≈ 0.457 µM)

SMILES: CO/N=C(\C(=O)N[C@@H]1C(=O)N2C(C(=O)O)=C(CSc3nc(=O)c(O)nn3C)CS[C@H]12)c1csc(N)n1 [CEFTRIAXONE]
- MIC [1]: 0.03 µg/mL (≈ 0.0541 µM)
- MIC [2]: 0.03 µg/mL (≈ 0.0541 µM)
- MIC [6]: 0.03 µg/mL
- MIC [7]: 0.06 µg/mL
- MIC [3]: 0.03 µg/mL (≈ 0.0541 µM)
- MIC [8]: ≤ 0.015 µg/mL
- MIC [4]: 0.03 µg/mL (≈ 0.0541 µM)
- MIC [4, 9]: 0.03 µg/mL (≈ 0.0541 µM)

SMILES: CO/N=C(\C(=O)N[C@@H]1C(=O)N2C(C(=O)O)=C(COC(N)=O)CS[C@H]12)c1ccco1 [CEFUROXIME]
- MIC [1]: 4 µg/mL (≈ 9.43 µM)
- MIC [2]: 2 µg/mL (≈ 4.71 µM)
- MIC [3]: 4 µg/mL (≈ 9.43 µM)
- MIC [4, 9]: 8 µg/mL (≈ 18.9 µM)
